The values below are quoted from earlier work in US20230190776A1, “ENCAPSULATION OF BIOACTIVE INGREDIENTS BY MULTIPLEX EMULSION” (The Board of Regents of the University of Texas System, priority 2021, published 2023).

The conditions of this series: up to 14 weeks of administrations; species not given.

With `O=C1CCC[C@@H]2[C@H]3CCC[N+]4([O-])CCC[C@@H](CN12)[C@@H]34` (stereo partly shown) [Oxymatrine], the lethal dose result was “around 300 mg/kg”.
